Experiments:
ddY mice [1] = test: Effect on central nervous system depressant: ethanol enhancing method, first part; details: mouse, in vivo, po, 300 mg/kg
Protocol: (§1) Effect On Central Nervous System Depressant
b. Ethanol Enhancing Method
(§2) Compound 3, Compound 13, diazepam or buspirone was suspended in a 0.5 % sodium carboxymethyl cellulose solution, and the suspension was orally administered to 3- to 4-week-old male ddY mice (in groups of 6) in a volume of 10 ml/kg one hour before the start of experiment.
The test was conducted with reference to a method described in Japan. J. Pharmacol., 49, 337˜349(1989). More specifically, the group of mice were intraperitoneally given 25 % ethanol at a dose of 20 ml/kg and checked for the time interval between loss and recovery of the righting reflex.

ddY mice [2] = test: Sedative effect (spontaneous locomotor activity), first part; details: mouse, in vivo, po, 300 mg/kg
Protocol: Sedative Effect (Spontaneous Locomotor Activity)
(§3) Compound 3, Compound 13, diazepam or buspirone was suspended in a 0.5 % sodium carboxymethyl cellulose solution, and the suspension was orally administered to 3- to 4-week-old male ddY mice (in groups of 5) in a volume of 10 ml/kg one hour before the start of experiment.
The test was conducted with reference to a method described in “Evaluation of Medicinal Efficacies (1), Pharmacological Test Method (1), Basic Lectures on Development of Pharmaceuticals,” 50˜54(1971). More specifically, the group of mice were given the test drug and thereafter measured the amount of spontaneous locomotor activity for 10 minutes per mouse rising Animex MK-110 (product of Muromachi Kikai Co., Ltd.).

Wistar rats = test: Anticonflict test (first part, Test Example 1); type: in vivo; details: for Frequency of water drinking behavior: 1 h before test, value relative to control = 100
Protocol: Wistar rats (males weighing 140 to 160 g) were used for experiment in groups of 11 to 14.
The test compound, diazepam or buspirone was suspended in a 0.5 % sodiumn carboxymethyl cellulose solution, and the suspension was orally given to the animal in a volume of 5 mnl/kg one hour before the start of experiment.
With reference to a method described in “Process in Anxiolytics and Antidepresants,” ediled by Showa Ueki and Tatsuo Furukawa, Ishiyaku Shuppansha, 56-59 (1981) , the agents were tested using experimental boxes having a grid floor and a metal drinking tube in the floor. No water was supplied to the rats for 48 hours before the experiment. Upon lapse of first 24 hours, each group of rats were placed into the experimental box, permitted access to water for 30 seconds and caused to recognize the metal drinking tube. Upon lapse of further 24 hours with access to water prevented, the rats were placed into the box again and permitted access to water on condition that an electric current was passed between the metal drinking tube and the grid to give an electroshock for every 20 times of water drinking behavior to measure the frequency of water drinking behavior for 3 minutes.
The frequency is expessed by a value relative to the frequency of the control which is taken as 100.

ddY mice [3] = test: Muscle relaxant effect (traction method), first part; details: mouse, in vivo, po, 300 mg/kg
Protocol: Muscle Relaxant Effect (Traction Method)
as §3
With reference to a method described in Japan. J. Pharmacol., 49. 337˜349(1989), the foreleg of the mouse was hung on a horizontal wire, having a diameter of 1.2 mm and fixed at a level of 30 cm, three times consecutively. […] Thus, ED5 0 was determined for evaluation. […] Diazepam and buspirone were 2.2 mg/kg and 427.8 mg/kg, respectively, in ED5 0.

ddY mice [4] = test: Anticonvulsant effect (pentylenetetrazol-induced convulsion method), first part; type: in vivo; details: oral, dose of 300 mg/kg
Protocol: Anticonvulsant Effect (Pentylenetetrazol-Induced Convulsion Method)
as §2
The test was conducted with reference to a method described in “Evaluation of Medicinal Efficacies (1), Pharmacological Test Method (1), Basic lectures on Development of Pharmaceuticals,” 167˜172(1971).

ddY mice [5] = test: Effect on central nervous system depressant: pentobarbital anesthetic method; details: oral, mice; pentobarbital 40 mg/kg i.p.
Protocol: as §1
a. Pentobarbital Anesthetic Method
Compound 3, Compound 13, diazepam or buspirone was suspended in a 0.5 % sodium carboxymethyl cellulose solution, and the suspension was orally administered to 3- to 4-week-old male ddY mice (in groups of 5 to 10) in a volume of 10 ml/kg one hour before the start of experiment.
The test was conducted with reference to a method described in “Evaluation of Medicinal Efficacies (1), Pharmacological Test Method (1), Basic lectures on Development of Pharmaceuticals,” 144˜145(1971). More specifically, the group of mice were intraperitoneally given pentobarbital at a dose of 40 mg/kg and checked for sleeping time.

ddY mice [6] = test: Acute toxicity test (LD50), first part; type: in vivo; details: oral, male ddY mice, observed for 3 days

## COc1ccc(C(=O)N2C(=O)CCC3C(O)CCC32)cc1 (centres unmarked) [Compound 13, γ-6,c-7-Hydroxy-2-(4-methoxybenzoyl)-2-azabicyclo-[4.3.0]nonan-3-one]
ddY mice [1]
  Ethanol enhancing effect (in words): no ethanol enhancing effect
ddY mice [2]
  Sedative effect (in words): no sedative effect
Wistar rats; dose 0.001 mg/kg oral
  Frequency of water drinking behavior: 130%
Wistar rats; dose 0.01 mg/kg oral
  Frequency of water drinking behavior: 183%
Wistar rats; dose 0.1 mg/kg oral
  Frequency of water drinking behavior: 177%
Wistar rats; dose 1.0 mg/kg oral
  Frequency of water drinking behavior: 169%
Wistar rats; oral, compounds at doses of 0.001 to 1.0 mg/kg
  Anxiolytic effect in the anticonflict test (in words): increase in the frequency of water drinking behavior
ddY mice [3]
  Muscle relaxant effect (in words): no muscle relaxant effect
ddY mice [4]
  Anticonvulsant effect (in words): no anticonvtilsant effect
ddY mice [5]
  ED50, pentobarbital sleeping time in excess of twice control: 224.5 mg/kg
ddY mice [6]
  Acute Toxicity LD50: 3000< mg/kg
